Measured values from the Kinase Knowledgebase extract (Sharma et al. 2016).

Assays:
[1] = target: PIK3CG (human) (UniProt P48736); assay: Inhibition of PIK3CG Kinase Activity
[2] = target: PIK3CB (Human) (UniProt P42338); assay: Inhibition of PIK3CB Kinase Activity
[3] = target: PIK3CD (Human) (UniProt O00329); assay: Inhibition of PIK3CD Kinase Activity
[4] = target: PIK3CA (human) (UniProt P42336); assay: Inhibition of PIK3CA Kinase Activity
PIK3CA (human), sequence (P42336 whole entry, looked up): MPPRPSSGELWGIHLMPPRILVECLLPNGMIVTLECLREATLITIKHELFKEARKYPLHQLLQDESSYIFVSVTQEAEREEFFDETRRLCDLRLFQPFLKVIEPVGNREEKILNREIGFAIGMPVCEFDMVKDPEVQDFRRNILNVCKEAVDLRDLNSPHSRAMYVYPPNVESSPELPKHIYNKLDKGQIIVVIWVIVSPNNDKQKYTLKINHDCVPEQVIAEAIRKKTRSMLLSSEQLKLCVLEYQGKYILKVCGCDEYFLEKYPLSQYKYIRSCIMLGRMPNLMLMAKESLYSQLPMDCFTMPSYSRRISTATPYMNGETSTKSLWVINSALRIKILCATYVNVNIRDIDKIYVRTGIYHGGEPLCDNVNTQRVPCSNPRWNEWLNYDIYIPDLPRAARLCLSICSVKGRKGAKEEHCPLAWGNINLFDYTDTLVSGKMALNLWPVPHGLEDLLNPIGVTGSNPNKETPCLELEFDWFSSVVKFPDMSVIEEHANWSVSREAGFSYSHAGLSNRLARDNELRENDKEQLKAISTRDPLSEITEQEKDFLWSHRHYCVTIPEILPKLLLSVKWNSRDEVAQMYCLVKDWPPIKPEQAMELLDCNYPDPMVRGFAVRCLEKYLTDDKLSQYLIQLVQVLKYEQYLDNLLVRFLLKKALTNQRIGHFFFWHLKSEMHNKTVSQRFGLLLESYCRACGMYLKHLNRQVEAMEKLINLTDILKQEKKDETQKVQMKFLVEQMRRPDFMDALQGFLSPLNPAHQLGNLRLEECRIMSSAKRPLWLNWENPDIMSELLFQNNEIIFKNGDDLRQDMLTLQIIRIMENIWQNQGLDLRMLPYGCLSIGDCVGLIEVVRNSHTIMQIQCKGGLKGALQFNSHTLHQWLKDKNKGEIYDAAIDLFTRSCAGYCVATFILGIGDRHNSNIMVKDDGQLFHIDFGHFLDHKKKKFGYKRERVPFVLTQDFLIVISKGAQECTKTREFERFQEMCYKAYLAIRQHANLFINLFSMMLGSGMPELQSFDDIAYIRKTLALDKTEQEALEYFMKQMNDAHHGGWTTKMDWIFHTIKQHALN

PIK3CG (human), sequence (P48736 whole entry, looked up): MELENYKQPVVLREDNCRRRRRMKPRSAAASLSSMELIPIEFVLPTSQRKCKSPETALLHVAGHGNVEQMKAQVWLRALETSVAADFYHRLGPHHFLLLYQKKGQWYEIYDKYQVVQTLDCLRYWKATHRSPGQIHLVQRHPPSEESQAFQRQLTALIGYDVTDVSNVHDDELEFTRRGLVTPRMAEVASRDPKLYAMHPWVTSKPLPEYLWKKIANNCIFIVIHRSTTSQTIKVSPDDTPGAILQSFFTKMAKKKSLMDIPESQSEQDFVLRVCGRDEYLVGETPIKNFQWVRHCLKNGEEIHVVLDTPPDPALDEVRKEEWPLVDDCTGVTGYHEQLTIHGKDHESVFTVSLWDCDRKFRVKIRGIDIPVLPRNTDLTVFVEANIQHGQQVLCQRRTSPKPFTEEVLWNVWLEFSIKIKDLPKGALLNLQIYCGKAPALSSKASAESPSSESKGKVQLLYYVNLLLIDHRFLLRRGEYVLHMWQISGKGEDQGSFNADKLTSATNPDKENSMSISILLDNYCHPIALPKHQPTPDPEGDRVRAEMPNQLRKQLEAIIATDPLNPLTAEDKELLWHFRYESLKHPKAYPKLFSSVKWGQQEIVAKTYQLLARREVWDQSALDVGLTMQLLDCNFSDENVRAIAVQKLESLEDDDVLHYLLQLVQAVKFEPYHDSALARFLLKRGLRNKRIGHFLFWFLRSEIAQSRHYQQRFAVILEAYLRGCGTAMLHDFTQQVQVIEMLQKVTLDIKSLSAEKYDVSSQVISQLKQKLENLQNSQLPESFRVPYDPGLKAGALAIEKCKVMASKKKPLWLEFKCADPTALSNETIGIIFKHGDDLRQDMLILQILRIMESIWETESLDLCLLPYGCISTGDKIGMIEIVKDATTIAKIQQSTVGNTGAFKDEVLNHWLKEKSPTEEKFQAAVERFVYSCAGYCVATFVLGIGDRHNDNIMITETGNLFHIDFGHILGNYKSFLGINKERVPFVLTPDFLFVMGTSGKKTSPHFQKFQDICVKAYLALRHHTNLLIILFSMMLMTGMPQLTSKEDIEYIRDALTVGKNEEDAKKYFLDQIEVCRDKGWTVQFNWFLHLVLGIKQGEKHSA
PIK3CB (Human), sequence (P42338 whole entry, looked up): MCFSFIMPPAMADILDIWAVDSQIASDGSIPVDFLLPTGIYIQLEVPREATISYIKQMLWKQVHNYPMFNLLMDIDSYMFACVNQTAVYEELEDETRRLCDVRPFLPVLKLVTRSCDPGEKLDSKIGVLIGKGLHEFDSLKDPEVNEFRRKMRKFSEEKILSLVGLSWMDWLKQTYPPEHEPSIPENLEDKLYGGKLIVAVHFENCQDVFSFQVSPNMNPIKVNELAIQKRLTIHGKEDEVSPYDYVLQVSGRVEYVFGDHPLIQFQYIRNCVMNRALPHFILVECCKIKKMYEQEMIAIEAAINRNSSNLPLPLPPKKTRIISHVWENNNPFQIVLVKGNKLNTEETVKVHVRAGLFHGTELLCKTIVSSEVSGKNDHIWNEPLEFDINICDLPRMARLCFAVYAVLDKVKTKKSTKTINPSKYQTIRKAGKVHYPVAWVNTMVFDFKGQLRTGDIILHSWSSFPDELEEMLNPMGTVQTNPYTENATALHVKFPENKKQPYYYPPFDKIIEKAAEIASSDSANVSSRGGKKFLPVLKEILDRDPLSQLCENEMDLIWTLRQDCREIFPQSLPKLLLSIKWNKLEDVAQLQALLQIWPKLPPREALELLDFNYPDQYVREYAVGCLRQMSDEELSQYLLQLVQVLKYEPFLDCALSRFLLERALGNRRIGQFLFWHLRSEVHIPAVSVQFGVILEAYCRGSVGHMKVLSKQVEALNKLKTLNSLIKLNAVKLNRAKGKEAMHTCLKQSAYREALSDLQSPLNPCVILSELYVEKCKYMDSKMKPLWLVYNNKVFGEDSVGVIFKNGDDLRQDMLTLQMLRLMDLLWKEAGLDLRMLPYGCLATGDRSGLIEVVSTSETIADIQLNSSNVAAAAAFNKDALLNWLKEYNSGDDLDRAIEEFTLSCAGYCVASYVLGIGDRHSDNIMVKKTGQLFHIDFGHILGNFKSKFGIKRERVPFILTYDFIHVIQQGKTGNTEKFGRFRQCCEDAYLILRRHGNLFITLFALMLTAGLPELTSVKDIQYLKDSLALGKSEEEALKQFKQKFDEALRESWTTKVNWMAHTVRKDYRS
PIK3CD (Human), sequence (O00329 whole entry, looked up): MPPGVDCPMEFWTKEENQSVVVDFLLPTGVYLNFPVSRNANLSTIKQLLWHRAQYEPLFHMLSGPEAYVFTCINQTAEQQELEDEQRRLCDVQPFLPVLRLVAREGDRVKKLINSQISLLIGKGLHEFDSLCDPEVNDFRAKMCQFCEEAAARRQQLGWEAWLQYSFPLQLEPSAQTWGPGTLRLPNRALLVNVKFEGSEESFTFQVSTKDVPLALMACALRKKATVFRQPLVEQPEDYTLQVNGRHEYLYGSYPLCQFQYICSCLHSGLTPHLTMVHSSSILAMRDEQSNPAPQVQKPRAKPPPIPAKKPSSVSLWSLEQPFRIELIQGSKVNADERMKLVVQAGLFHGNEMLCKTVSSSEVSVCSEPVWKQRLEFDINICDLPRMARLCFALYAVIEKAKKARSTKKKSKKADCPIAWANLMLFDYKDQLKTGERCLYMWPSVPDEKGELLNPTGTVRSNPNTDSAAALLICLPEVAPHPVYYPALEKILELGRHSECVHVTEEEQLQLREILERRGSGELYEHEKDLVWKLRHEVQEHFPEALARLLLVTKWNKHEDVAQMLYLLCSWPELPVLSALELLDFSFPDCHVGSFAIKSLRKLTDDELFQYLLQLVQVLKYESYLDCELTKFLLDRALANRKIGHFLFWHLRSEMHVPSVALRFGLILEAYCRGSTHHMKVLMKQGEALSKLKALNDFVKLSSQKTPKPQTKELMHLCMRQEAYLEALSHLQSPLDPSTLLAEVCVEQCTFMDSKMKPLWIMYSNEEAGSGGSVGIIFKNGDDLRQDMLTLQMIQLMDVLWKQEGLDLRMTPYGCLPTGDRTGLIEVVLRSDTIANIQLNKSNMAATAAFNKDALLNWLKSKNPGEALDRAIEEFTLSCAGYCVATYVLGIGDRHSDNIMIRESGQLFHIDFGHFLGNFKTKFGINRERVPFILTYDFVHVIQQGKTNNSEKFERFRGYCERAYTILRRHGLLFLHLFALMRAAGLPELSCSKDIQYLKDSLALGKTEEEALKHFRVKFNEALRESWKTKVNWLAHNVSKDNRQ

| IC50 [1] [nM] | IC50 [2] [nM] | IC50 [3] [nM] | IC50 [4] [nM] | Structure (SMILES) |
| --- | --- | --- | --- | --- |
| < 100 | – | – | – | CCCNS(=O)(=O)c1cncc(-c2ccn3nc(N)nc3c2)c1 |
| < 100 | – | – | – | Nc1nc2cc(-c3cncc(S(=O)(=O)NCc4ccccc4)c3)ccn2n1 |
| < 100 | – | – | 100 to 1000 | Nc1nc2cc(-c3cncc(S(=O)(=O)Nc4ccccc4)c3)ccn2n1 |
| < 100 | – | – | – | Nc1nc2cc(-c3cncc(S(=O)(=O)NCC(F)(F)F)c3)ccn2n1 |
| < 100 | 100 to 1000 | 100 to 1000 | – | CNS(=O)(=O)c1cncc(-c2ccn3nc(N)nc3c2)c1 |
| < 100 | 100 to 1000 | 100 to 1000 | 100 to 1000 | CC(C)(C)NS(=O)(=O)c1cncc(-c2ccn3nc(N)nc3c2)c1 |
| < 100 | 100 to 1000 | 100 to 1000 | – | CCNS(=O)(=O)c1cncc(-c2ccn3nc(N)nc3c2)c1 |
| < 100 | 100 to 1000 | 100 to 1000 | – | Nc1nc2cc(-c3cncc(S(N)(=O)=O)c3)ccn2n1 |

Second part, the molecule before the results:

| Structure (SMILES) | IC50 [1] [nM] | IC50 [2] [nM] | IC50 [3] [nM] | IC50 [4] [nM] |
| --- | --- | --- | --- | --- |
| Nc1nc2cc(-c3cncc(S(=O)(=O)N4CCC4)c3)ccn2n1 | < 100 | – | – | – |
| CS(=O)(=O)c1cccc(-c2ccn3nc(N)nc3c2)c1 | 100 to 1000 | – | – | – |
| CC(C)(C)NS(=O)(=O)c1cncc(-c2cc(F)n3nc(N)nc3c2)c1 | < 100 | 100 to 1000 | – | – |
| CCN(CC)S(=O)(=O)c1cncc(-c2ccn3nc(N)nc3c2)c1 | < 100 | 100 to 1000 | 100 to 1000 | – |
| CCCCNS(=O)(=O)c1cccc(-c2ccn3nc(N)nc3c2)c1 | 100 to 1000 | – | – | – |
| CC(C)(NS(=O)(=O)c1cncc(-c2ccn3nc(N)nc3c2)c1)C(F)(F)F | < 100 | 100 to 1000 | 100 to 1000 | – |
| CC(C)NS(=O)(=O)c1cncc(-c2ccn3nc(N)nc3c2)c1 | < 100 | 100 to 1000 | 100 to 1000 | – |
| Nc1nc2cc(-c3cccnc3)ccn2n1 | 100 to 1000 | – | – | – |
| COc1ccc(-c2ccn3nc(N)nc3c2)cc1OC | < 100 | – | 100 to 1000 | 100 to 1000 |
| CCN(C)S(=O)(=O)c1cncc(-c2ccn3nc(N)nc3c2)c1 | < 100 | – | 100 to 1000 | 100 to 1000 |
| Nc1nc2cc(-c3cncc(S(=O)(=O)NC4CC4)c3)ccn2n1 | < 100 | 100 to 1000 | 100 to 1000 | – |
| Nc1nc2cc(-c3cncc(C(F)(F)F)c3)ccn2n1 | 100 to 1000 | – | – | – |
| CS(=O)(=O)c1cncc(-c2ccn3nc(N)nc3c2)c1 | < 100 | – | – | – |
